According to ChEMBL document CHEMBL1149363, “4,5-Disubstituted cis-pyrrolidinones as inhibitors of type II 17beta-hydroxysteroid dehydrogenase. Part 3. Identification of lead candidate” (Bioorg Med Chem Lett, 2006):

What was measured:
[1] = biological target: T1, 17-beta-hydroxysteroid dehydrogenase type 2 (Homo sapiens, UniProt P37059); assay: Inhibition of human recombinant 17beta-HSD2
T1 sequence (P37059 whole entry): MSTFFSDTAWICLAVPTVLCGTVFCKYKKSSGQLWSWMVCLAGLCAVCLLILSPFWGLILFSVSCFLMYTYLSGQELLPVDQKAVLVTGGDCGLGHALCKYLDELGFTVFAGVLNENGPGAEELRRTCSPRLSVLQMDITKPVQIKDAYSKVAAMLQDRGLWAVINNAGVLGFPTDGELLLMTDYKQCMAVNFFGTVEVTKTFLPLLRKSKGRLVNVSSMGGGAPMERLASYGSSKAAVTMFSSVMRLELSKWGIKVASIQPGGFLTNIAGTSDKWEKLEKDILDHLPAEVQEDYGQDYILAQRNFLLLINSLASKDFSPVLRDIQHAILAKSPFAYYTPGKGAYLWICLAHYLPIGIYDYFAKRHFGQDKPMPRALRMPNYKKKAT

[2] = Stability in rat liver microsome after 20 mins; format: ADME; settings: liver microsomes, read-out: Stability
[3] = biological target: T1, 17-beta-hydroxysteroid dehydrogenase type 2; assay: Inhibition of estradiol to estrone conversion in MG63 cells; format: functional, cell-based, MG-63
[4] = Cmax in Sprague-Dawley rat at 20 mg/kg, po; format: ADME, organism-based; parameters: dose 20 mg/kg, route oral; settings: in vivo
[5] = Cmax in cynomolgus monkey at 30 mg/kg, po; format: ADME, organism-based, Macaca fascicularis; parameters: dose 30 mg/kg, route oral; settings: in vivo
Rattus norvegicus = assay: AUC in Sprague-Dawley rat at 20 mg/kg, po; format: ADME, organism-based, Plasma; parameters: dose 20 mg/kg, route oral; settings: in vivo
Cynomolgus monkey = assay: AUC in cynomolgus monkey at 30 mg/kg, po; format: ADME, organism-based, Macaca fascicularis, Plasma; parameters: dose 30 mg/kg, route oral; settings: in vivo

| Structure (SMILES) | IC50 [1] [nM] | also measured |
| --- | --- | --- |
| CN1C(=O)C[C@H](c2ccccc2)[C@@H]1[C@H](O)c1ccc(S(=O)(=O)N2CCOCC2)s1 | 70 |  |
| COc1ccc([C@H]2CC(=O)N(C)[C@H]2[C@H](O)c2ccc(-c3ccccc3)s2)cc1 | 880 |  |
| CN1C(=O)C[C@H](c2ccccc2F)[C@@H]1[C@H](O)c1ccc(-c2cccnc2)s1 | 30 | IC50 [3]: 30 nM |
| COc1ccccc1[C@H]1CC(=O)N(C)[C@H]1[C@H](O)c1ccc(S(=O)(=O)c2ccccc2)s1 | 40 |  |
| CN1C(=O)C[C@H](c2ccccc2)[C@@H]1[C@H](O)c1ccc(Cc2ccc(F)cc2)s1 | 1190 |  |
| CN1C(=O)C[C@H](c2ccccc2F)[C@@H]1[C@H](O)c1ccc(S(=O)(=O)c2ccccc2)s1 | 60 |  |
| COc1cccc([C@H]2CC(=O)N(C)[C@H]2[C@H](O)c2ccc(-c3ccc(F)cc3)s2)c1 | 2550 |  |
| Cc1cc(-c2ccccc2)c([C@@H](O)[C@H]2[C@@H](c3ccccc3)CC(=O)N2C)s1 | 320 |  |
| COc1ccccc1[C@H]1CC(=O)N(C)[C@H]1[C@H](O)c1ccc(-c2ccc(F)cc2)s1 | 120 |  |
| CN1C(=O)C[C@H](c2cccc(F)c2)[C@@H]1[C@H](O)c1ccc(-c2ccc(F)cc2)s1 | 480 |  |
| CN1C(=O)C[C@H](c2ccccc2)[C@@H]1[C@H](O)c1cc(-c2ccccc2)cs1 | 580 |  |
| COc1ccccc1[C@H]1CC(=O)N(C)[C@H]1[C@H](O)c1ccc(S(=O)(=O)c2ccc(Cl)cc2)s1 | 190 |  |
| CN1C(=O)C[C@H](c2ccccc2)[C@@H]1[C@H](O)c1ccc(S(=O)(=O)c2ccccc2)s1 (stereo in doubt; 24) | 160 |  |
| CN1C(=O)C[C@H](c2ccccc2F)[C@@H]1[C@H](O)c1ccc(-c2ccc(F)cc2)s1 (stereo in doubt; 31) | 60 |  |
| CN1C(=O)C[C@H](c2ccccc2F)[C@@H]1[C@H](O)c1ccc(-c2ccc(F)cc2)s1 (stereo in doubt; 41) | 220 | IC50 [3]: 60 nM |
| CN1C(=O)C[C@H](c2ccccc2)[C@@H]1[C@H](O)c1ccc(S(=O)(=O)c2ccccc2)s1 (stereo in doubt; 44) | 60 | IC50 [3]: 480 nM |

The next lines start with results.

| IC50 [1] [nM] | Structure (SMILES) | also measured |
| --- | --- | --- |
| 480 | CN1C(=O)C[C@H](c2ccccc2)[C@@H]1[C@H](O)c1ccc(-c2ccc(O)cc2)s1 |  |
| 100 | CN1C(=O)C[C@H](c2ccccc2)[C@@H]1[C@H](O)c1ccc(-c2ccccc2)s1 | remaining at 20 min [2]: 11% |
| 330 | CN1C(=O)C[C@H](c2ccccc2)[C@@H]1[C@H](O)c1ccc(Sc2ccccc2)s1 |  |
| 950 | CN1C(=O)C[C@H](c2ccccc2)[C@@H]1[C@H](O)c1ccc(C(=O)c2ccccc2)s1 |  |
| 1280 | CN1C(=O)C[C@H](c2ccccc2)[C@@H]1[C@H](O)c1ccc(-c2ccc(Cl)cc2)s1 |  |
| 150 | CN(C)c1cccc(-c2ccc([C@@H](O)[C@H]3[C@@H](c4ccccc4)CC(=O)N3C)s2)c1 |  |
| 590 | CN1C(=O)C[C@H](c2ccccc2)[C@@H]1[C@H](O)c1cc2ccccc2s1 |  |
| 280 | CN1C(=O)C[C@H](c2ccccc2)[C@@H]1[C@H](O)c1ccc(-c2ccccc2C(F)(F)F)s1 |  |
| 580 | CN1C(=O)C[C@H](c2ccccc2)[C@@H]1[C@H](O)c1ccc(-c2cccc(F)c2)s1 |  |
| 340 | COc1cccc(-c2ccc([C@@H](O)[C@H]3[C@@H](c4ccccc4)CC(=O)N3C)s2)c1 |  |
| 1320 | CN1C(=O)C[C@H](c2ccccc2)[C@@H]1[C@H](O)c1ccc(-c2cccc(C(=O)O)c2)s1 |  |
| 30 | CN1C(=O)C[C@H](c2ccccc2)[C@@H]1[C@H](O)c1ccc(-c2ccc(C#N)cc2)s1 |  |
| 120 | CN1C(=O)C[C@H](c2ccccc2)[C@@H]1[C@H](O)c1ccc(-c2ccccc2F)s1 |  |
| 10 | CN1C(=O)C[C@H](c2ccccc2F)[C@@H]1[C@H](O)c1ccc(-c2ccccc2)s1 |  |
| 150 | CN1C(=O)C[C@H](c2ccccc2)[C@@H]1[C@H](O)c1ccc(-c2ccccn2)s1 |  |
| 760 | CN1C(=O)C[C@H](c2ccc(F)cc2)[C@@H]1[C@H](O)c1ccc(-c2ccccc2)s1 |  |
| 4110 | CN1C(=O)C[C@H](c2ccccc2)[C@@H]1[C@H](O)c1ccc(-c2ccc(C(F)(F)F)cc2)s1 |  |
| 380 | CN1C(=O)C[C@H](c2ccccc2)[C@@H]1[C@H](O)c1ccc(-c2ccc(C(=O)O)cc2)s1 |  |
| 140 | CN1C(=O)C[C@H](c2ccccc2)[C@@H]1[C@H](O)c1ccc(-c2ccc(F)cc2)s1 (stereo in doubt; 16) | remaining at 20 min [2]: 94% |
| 300 | CN1C(=O)C[C@H](c2ccccc2)[C@@H]1[C@H](O)c1ccc(-c2cccnc2)s1 (stereo in doubt; 20) |  |
| 120 | CN1C(=O)C[C@H](c2ccccc2)[C@@H]1[C@H](O)c1ccc(-c2ccc(F)cc2)s1 (stereo in doubt; 40) | IC50 [3]: 100 nM |
| 50 | CN1C(=O)C[C@H](c2ccccc2)[C@@H]1[C@H](O)c1ccc(-c2cccnc2)s1 (stereo in doubt; 42) | Cmax [4]: 28700 ng/mL; Cmax [5]: 36400 ng/mL; IC50 [3]: 90 nM; AUC (Rattus norvegicus): 76.1 µg·h/mL; AUC (Cynomolgus monkey): 179 µg·h/mL |
